Laboratory results reported in ChEMBL document CHEMBL3046473, “Effect on Insecticidal Activity of Substituents at the 1,4-Benzodioxanyl Moiety of Haedoxan” (1992).

What was measured:
[1] = tested on: Musca domestica; test: Insecticidal activity against 3-day old Musca domestica (house fly) administered topically measured after 24 hr; format: functional
[2] = tested on: Musca domestica; test: Insecticidal activity against 3-day old Musca domestica (house fly) administered topically measured after 24 hr relative to (+)-haedoxan A; format: functional

COc1cc2c(cc1[C@H]1OC[C@]3(O)[C@@H](Oc4c(OC)cccc4OC)OC[C@H]13)OCCO2
LD50 [1]: >10 µg

COc1cc2c(cc1[C@H]1OC[C@]3(O)[C@@H](Oc4c(OC)cccc4OC)OC[C@H]13)OC(CCl)CO2 (mixture of isomers)
Ratio [2]: 5e-05 | LD50 [1]: 5 µg

COc1cc2c(cc1[C@H]1OC[C@]3(O)[C@@H](Oc4c(OC)cccc4OC)OC[C@H]13)OC(CO)CO2 (mixture of isomers)
LD50 [1]: >10 µg

COc1cc2c(cc1[C@H]1OC[C@]3(O)[C@@H](Oc4c(OC)cccc4OC)OC[C@H]13)OC(COC(C)(C)C)CO2 (mixture of isomers)
Ratio [2]: 0.0003 | LD50 [1]: 1 µg

COc1cc2c(cc1[C@H]1OC[C@]3(O)[C@@H](Oc4c(OC)cccc4OC)OC[C@H]13)OC(COCc1ccccc1)CO2 (mixture of isomers)
LD50 [1]: >10 µg

COCC1COc2cc(OC)c([C@H]3OC[C@]4(O)[C@@H](Oc5c(OC)cccc5OC)OC[C@H]34)cc2O1 (mixture of isomers)
Ratio [2]: 0.0003 | LD50 [1]: 1 µg

COc1cc2c(cc1[C@H]1OC[C@]3(O)[C@@H](Oc4c(OC)cccc4OC)OC[C@H]13)OCC(c1ccc3c(c1)OCO3)O2 (mixture of isomers)
Ratio [2]: 0.0003 | LD50 [1]: 1 µg

COC[C@H]1Oc2cc([C@H]3OC[C@]4(O)[C@@H](Oc5c(OC)cc6c(c5OC)OCO6)OC[C@H]34)c(OC)cc2O[C@@H]1c1ccc2c(c1)OCO2 [(+)-HAEDOXAN A]
LD50 [1]: 0.00025 µg
